Laboratory results as given in article PMC4532424, “The Novel Cyclophilin Inhibitor CPI-431-32 Concurrently Blocks HCV and HIV-1 Infections via a Similar Mechanism of Action” (PLoS ONE, 2015).
Read-outs that look alike come from different tables or passages of the source. Non-standard residues stand in square brackets, D forms with d. Residues, ends and D or L forms follow the SMILES beside them. NMeThr(4R-Me,4-(CH2)6NHAc) = CN[C@H](C(=O)O)[C@H](O)[C@H](C)CCCCCCNC(C)=O; NMeL = CN[C@@H](CC(C)C)C(=O)O; NMeV = CN[C@H](C(=O)O)C(C)C; dNMeA = CN[C@H](C)C(=O)O; Abu = CC[C@H](N)C(=O)O

Tests used:
[1] = tested on: HIV-1 JR-CSF; test: HIV-1 mono-infection of CD4+ T-lymphocytes, p24 ELISA; format: cell-based; settings: Fig 1A
Description: Hemoglobin determinations at every donation protect the donor from phlebotomy-induced anemia. The donor pool also provides investigators with a mix of gender and minority subjects, and recruitment is ongoing for underrepresented minorities. At the present time, the NBDS has 320 active normal blood donors enrolled. Use of the Normal Blood Donor Service is considered “human subjects” research and each investigator who wants to use the service must submit a protocol to the IRB for review and approval. Dr. Gallay has current IRB approval for the human blood obtained for research described in this manuscript. Protocol No: IRB-15-6552. Full name of the IRB is "Scripps IRB". […] Consent from blood donors was obtained verbally. The authors have no access to identifying donor information for these samples.

[2] = tested on: HIV-1 ALV-resistant (CMU8); test: HIV-1 infection of TZM reporter cells, β-galactosidase; format: cell-based; settings: read-out: EC50, inhibition of HIV-1 infection
Description: (§1) the reverse transcriptase inhibitor-resistant HIV-1 variant (nevirapine-resistant N119), the protease inhibitor-resistant HIV-1 variant (saquinavir-resistant), and the naturally occurring primary ALV-resistant variant CMU08 (contributed by Kenrad Nelson) were obtained from the AIDS Research and Reference Reagent Program. Lab-adapted wild-type NL4.3 and the ALV-resistant V86P/H87Q/I91V/M96I NL4.3 capsid mutant variant were described previously. For infection scoring, TZM-bl target cells (contributed by J. C. Kappes, X. Wu, and Tranzyme, Inc.) obtained through the AIDS Research and Reference Reagent Program were exposed to wild-type or drug-resistant HIV-1 variants (1 ng of p24) together with increasing concentrations of DMSO or CypI. HIV-1 infection was quantified 48 h post-infection by measuring β-galactosidase activity in cell lysates.
(§2) We then tested the efficacy of CPI-431-32 and ALV against a panel of drug-resistant HIV-1 and HCV variants. Specifically, we measured CPI-431-32 EC50 on a reverse transcriptase inhibitor-resistant HIV-1 variant (nevirapine-resistant), a protease inhibitor-resistant HIV-1 variant (saquinavir-resistant), and two partially ALV-resistant HIV-1 variants—a lab-adapted resistant variant (V86P/H87Q/I91V/M96I capsid mutant) and a naturally occurring primary partially resistant variant (CMU08). […] HIV-1 infection was quantified 48 h post-infection by measuring β-galactosidase activity in cell lysates.

[3] = tested on: HIV-1 ALV-resistant (NL4.3 V86P/H87Q/I91V/M96I); test: as above; format: cell-based; settings: read-out: EC50, inhibition of HIV-1 infection
Description: as §1, §2

[4] = tested on: HIV-1 protease (saquinavir)-resistant; test: as above; format: cell-based; settings: read-out: EC50, inhibition of HIV-1 infection
Description: as §1, §2

[5] = tested on: HIV-1 reverse transcriptase (nevirapine)-resistant; test: as above; format: cell-based; settings: read-out: EC50, inhibition of HIV-1 infection
Description: as §1, §2

[6] = tested on: HIV-1 wild-type (NL4.3); test: as above; format: cell-based; settings: read-out: EC50, inhibition of HIV-1 infection
Description: as §1, §2

[7] = tested on: HCV ALV-resistant (D320E/Y321N); test: HCV Luc-Con1 replicon replication in Huh7.5 cells, luciferase; format: cell-based; settings: read-out: EC50, inhibition of HCV replication
Method: (§3) The GT1b subgenomic firefly luciferase reporter replicon pFK-I389/NS3–3 was provided by R. Bartenschlager. The GT1B subgenomic NS3 (R155Q/A156T), NS5A (L31V, D320E/Y321N, S328P and P313A/P318A), and NS5B (S282T) mutants were created as previously. Half-maximal effective concentration (EC50) measurements were conducted as previously.
(§4) We took advantage of the DAA-resistant HCV genotype 1b Con1 replicons that we previously generated: the NS3 inhibitor-resistant R155Q/A156T NS3, the NS5A inhibitor-resistant L31V NS5A replicon, and the NS5B inhibitor-resistant S282T NS5B replicons. […] EC50 HCV data are expressed in nM whereas EC50 HIV-1 data are expressed in μM.

[8] = tested on: HCV CsA-sensitive (P313A/P318A); test: as above; format: cell-based; settings: read-out: EC50, inhibition of HCV replication
Method: as §3, §4

[9] = tested on: HCV CsA-sensitive (S328P); test: as above; format: cell-based; settings: read-out: EC50, inhibition of HCV replication
Method: as §3, §4

[10] = tested on: HCV NS3-resistant (R155Q/A156T); test: as above; format: cell-based; settings: read-out: EC50, inhibition of HCV replication
Method: as §3, §4

[11] = tested on: HCV NS5A-resistant (L31V); test: as above; format: cell-based; settings: read-out: EC50, inhibition of HCV replication
Method: as §3, §4

[12] = tested on: HCV NS5B-resistant (S282T); test: as above; format: cell-based; settings: read-out: EC50, inhibition of HCV replication
Method: as §3, §4

[13] = tested on: HCV wild-type (Con1b); test: as above; format: cell-based; settings: 72 h, read-out: EC50, inhibition of HCV replication
Method: as §3, §4

[14] = molecular target: CypA-HIV-1 capsid complex (Homo sapiens, UniProt P62937); test: CypA-HIV-1 capsid interaction ELISA; format: binding; settings: 16 h at 4°C
Chain of CypA-HIV-1 capsid complex (P62937 whole entry, one chain of several): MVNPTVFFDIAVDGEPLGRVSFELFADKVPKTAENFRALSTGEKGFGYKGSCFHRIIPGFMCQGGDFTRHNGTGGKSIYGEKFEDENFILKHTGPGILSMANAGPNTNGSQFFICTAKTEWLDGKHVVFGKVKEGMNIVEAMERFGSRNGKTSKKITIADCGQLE
Method: (§5) Recombinant GST-CypA, full-length HCV NS5A Con1 (pET-Ub-NS5A Con1-His) and HIV-1 capsid NL4.3 (pET-capsid-His) were expressed and purified as described previously. Inhibition of CypA-HCV NS5A and CypA-HIV-1 capsid interactions by the CypI […] were conducted as we described previously.
(§6) CypI are thought to inhibit the infection of HIV-1 and HCV mostly by preventing CypA-HIV-1 capsid and CypA-HCV NS5A interactions, respectively. The potency of CypI at inhibiting these interactions was determined using an ELISA assay previously developed in our laboratory. For analyzing CypA-HCV NS5A interactions, recombinant NS5A-His was added to GST-CypA-coated wells for 16 h at 4°C in the absence or presence of CypI, followed by detection of captured NS5A-His with anti-His antibodies. A similar assay was used for CypA-HIV-1 interactions except with recombinant His-tagged HIV-1 capsid.

[15] = molecular target: CypA-HCV NS5A complex (Homo sapiens, UniProt P62937); test: CypA-HCV NS5A interaction ELISA; settings: Table 2; NS5A-His on GST-CypA-coated plates, 16 h at 4°C; read-out: IC50, inhibition of NS5A binding to CypA
Chain of CypA-HCV NS5A complex (P62937 whole entry, one chain of several): as above
Method: as §5, §6

[16] = Human immunodeficiency virus 1, TZM, 48 h
[17] = Hepatitis C virus, Huh7.5, 72 h

C/C=C/C[C@@H](C)[C@@H](O)[C@H]1C(=O)N[C@@H](CC)C(=O)N(C)[C@H](C)C(=O)N(CC)[C@@H](C(C)C)C(=O)N[C@@H](C(C)C)C(=O)N(C)[C@@H](CC(C)C)C(=O)N[C@@H](C)C(=O)N[C@H](C)C(=O)N(C)[C@@H](CC(C)C)C(=O)N(C)[C@@H](CC(C)C)C(=O)N(C)[C@@H](C(C)C)C(=O)N1C [ALV, Alisporivir]
Effect on HIV-1 replication (in words) [1]: efficiently blocked viral growth
EC50 [2, 16]: 5.6 ± 0.4 µM
EC50 [3, 16]: 2300 ± 300 nM
EC50 [4, 16]: 160 ± 20 nM
EC50 [5, 16]: 100 ± 20 nM
EC50 ([6]; Human immunodeficiency virus 1, 48 h post-infection): 120 ± 30 nM
EC50 [7, 17]: 44.2 ± 5.8 nM
EC50 [8, 17]: 5.2 ± 0.6 nM
EC50 [9, 17]: 5.6 ± 1.1 nM
EC50 [10, 17]: 17.7 ± 1.9 nM
EC50 [11, 17]: 16.5 ± 2.1 nM
EC50 [12, 17]: 15.6 ± 2.4 nM
EC50 ([13]; Hepatitis C virus): 16.6 ± 0.8 nM
IC50 ([14]; IC50, inhibition of CypA-HIV-1 capsid interactions): 410 ± 50 nM
IC50 ([14]; IC50, inhibition of capsid binding to CypA, Table 2, capsid-His on GST-CypA-coated plates): 420 ± 110 nM
IC50 [15]: 420 ± 50 nM

CC[C@@H]1NC(=O)[C@H]([C@H](O)[C@H](C)CCCCCCNC(C)=O)N(C)C(=O)[C@H](C(C)C)N(C)C(=O)[C@H](CC(C)C)N(C)C(=O)[C@H](CC(C)C)N(C)C(=O)[C@@H](C)NC(=O)[C@H](C)NC(=O)[C@H](CC(C)C)N(C)C(=O)[C@H](C(C)C)NC(=O)[C@H](CC(C)C)N(C)C(=O)[C@@H](C)N(C)C1=O [CPI-431-32] (cyclo(A[dA][NMeL][NMeL][NMeV][NMeThr(4R-Me,4-(CH2)6NHAc)][Abu][dNMeA][NMeL]V[NMeL]))
Effect on HIV-1 replication (in words) [1]: efficiently blocked viral growth
EC50 ([2]; HIV-1 ALV-resistant (CMU8), TZM cells, 48 h post-infection): 2.1 ± 0.1 µM
EC50 ([3]; HIV-1 ALV-resistant (NL4.3 V86P/H87Q/I91V/M96I), TZM cells, 48 h post-infection): 900 ± 100 nM
EC50 ([4]; HIV-1 protease (saquinavir)-resistant, TZM cells, 48 h post-infection): 70 ± 20 nM
EC50 ([5]; HIV-1 reverse transcriptase (nevirapine)-resistant, TZM cells, 48 h post-infection): 30 ± 10 nM
EC50 ([6]; 48 h post-infection): 50 ± 10 nM
EC50 ([7]; HCV ALV-resistant (D320E/Y321N) replicon, Huh7.5 cells, 72 h): 26.5 ± 3.2 nM
EC50 ([8]; HCV CsA-sensitive (P313A/P318A) replicon, Huh7.5 cells, 72 h): 4.7 ± 0.2 nM
EC50 ([9]; HCV CsA-sensitive (S328P) replicon, Huh7.5 cells, 72 h): 5.1 ± 0.3 nM
EC50 ([10]; HCV NS3-resistant (R155Q/A156T) replicon, Huh7.5 cells, 72 h): 11.3 ± 0.2 nM
EC50 ([11]; HCV NS5A-resistant (L31V) replicon, Huh7.5 cells, 72 h): 8.9 ± 0.4 nM
EC50 ([12]; HCV NS5B-resistant (S282T) replicon, Huh7.5 cells, 72 h): 8.3 ± 0.4 nM
EC50 [13]: 9.3 ± 0.4 nM
IC50 ([14]; read-out: IC50, inhibition of CypA-HIV-1 capsid interactions): 210 ± 10 nM
IC50 ([14]; Table 2, capsid-His on GST-CypA-coated plates, read-out: IC50, inhibition of capsid binding to CypA): 230 ± 10 nM
IC50 [15]: 180 ± 30 nM
